Values after ≈ are worked out from the molar mass of the structure shown.
What was measured:
[1] = test system: gram positive and negative bacteria; details: human, in vivo; cited from earlier work
anthrax [2] = assay: microbe, parasite or virus in culture; type: cell-based; details: Bacillus anthracis, read-out: MIC against anthrax, mid point adopted in the models
inhalational anthrax = details: human, in vivo; cited from earlier work
[3] = test system: most other infectious organisms; details: in vivo; cited from earlier work
anthrax [4] = test system: anthrax; parameters: species or system human
[5] = test system: Bacillus anthracis spores; details: rhesus monkey, in vivo; cited from earlier work

O=C(O)c1cn(C2CC2)c2cc(N3CCNCC3)c(F)cc2c1=O [ciprofloxacin]
MIC range of the bacteria in the literature study [1]: 0.008 to 0.4 µg/mL | time to complete bacteria eradication [1]: more than 10 days | MIC (anthrax [2]): 0.07 µg/mL (≈ 0.211 µM) | overall survival of the US patients (inhalational anthrax): 55% | survival rate of anthrax patients treated with the drug (inhalational anthrax): 50˜60% | effectiveness against most other infectious organisms [3]: over 80% | drop of mortality rate (anthrax [4]): 2 folds | reduction of mortality rate with optimized regimens compared to currently recommended regimens (anthrax [4]): up to 2 folds | protection from the disease [5]: adequately protected from the disease | survival rate of ciprofloxacin-treated animals [5]: 90%
